The values below come from US8129398B2 (priority 2008, dated 2012).

The first experiment concerns the target T1, HIV-integrase (Human immunodeficiency virus type 1 group M subtype B, UniProt P12497).
T1 construct: Recombinant integrase (0.26 ng) was incubated with the beads
Kind of experiment: HIV-Integrase Inhibition Activity (SPA bead integration assay with P33 labeled target DNA). The experiment is classed as biochemical. The conditions noted are these: in vitro activity, recombinant integrase, class symbols. In a few lines: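 Biotinylated substrate DNA on streptavidin SPA beads loaded with recombinant integrase (90 min, 37° C), washed, then inhibitor plus 0.1 fmol P33-labeled target DNA added. Reaction stopped with 10 mM EDTA; integration measured as CPM by scintillation, giving IC50 ranks.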
For the compound `CC1(C)[C@@H]2CC[C@@]1(C)[C@@H](NS(C)(=O)=O)c1nc(C(=O)NCc3ccc(F)cc3)c(O)c(=O)n1C2` [Example 185, (7S,10R,11R)—N-(4-Fluorobenzyl)-3-hydroxy-10,12,12-trimethyl-11-((methylsulfonyl)amino)-4-oxo-6,7,8,9,10,11-hexahydro-4H-7,10-methanopyrimido[1,2-a]azocine-2-carboxamide], the IC50 is greater than 100 nM.

The same experiment, now with this note: recombinant integrase, class symbols; read-out: in vitro activity.
Regarding `O=C(NC12CCC(CC1)Cn1c2nc(C(=O)NCc2ccc(F)cc2)c(O)c1=O)C(=O)N1CCN(c2ccccc2)CC1` [Example 77, N-(4-Fluorobenzyl)-3-hydroxy-4-oxo-10-((oxo(4-phenyl-1-piperazinyl)acetyl)amino)-4,6,7,8,9,10-hexahydro-7,10-ethanopyrimido[1,2-a]azepine-2-carboxamide], the IC50 is less than 10 nM.

As for `CS(=O)(=O)N1[C@@H]2C[C@@H]2C[C@H]1C(=O)NC12CCC(CC1)Cn1c2nc(C(=O)NCc2ccc(F)cc2)c(O)c1=O` [Example 294, 7,10-Ethanopyrimido[1,2-a]azepine-2-carboxamide, N-[(4-fluorophenyl)methyl]-4,6,7,8,9,10-hexahydro-3-hydroxy-10-[[[(1R,3S,5R)-2-(methylsulfonyl)-2-azabicyclo[3.1.0]hex-3-yl]carbonyl]amino]-4-oxo-], the IC50 is less than 10 nM.

In the case of `CC(=O)N1CCC[C@H]1C(=O)NC12CCC(CC1)Cn1c2nc(C(=O)NCc2ccc(F)c(C)c2)c(O)c1=O` [Example 262, 7,10-Ethanopyrimido[1,2-a]azepine-2-carboxamide, 10-[[[(2S)-1-acetyl-2-pyrrolidinyl]carbonyl]amino]-N-[(4-fluoro-3-methylphenyl)methyl]-4,6,7,8,9,10-hexahydro-3-hydroxy-4-oxo-], the IC50 was less than 10 nM.

Consider `COCCOC12CCC(CC1)Cn1c2nc(C(=O)NCc2ccc(F)cc2)c(O)c1=O` [Example 225, 7,10-Ethanopyrimido[1,2-a]azepine-2-carboxamide, N-[(4-fluorophenyl)methyl]-4,6,7,8,9,10-hexahydro-3-hydroxy-10-(2-methoxyethoxy)-4-oxo-], for which the IC50 is less than 10 nM.

As for `CNC(=O)c1cn(C(C)(C)C(=O)NC23CCC(CC2)Cn2c3nc(C(=O)NCc3ccc(F)c(C)c3)c(O)c2=O)nn1` [Example 286, 7,10-Ethanopyrimido[1,2-a]azepine-2-carboxamide, N-[(4-fluoro-3-methylphenyl)methyl]-4,6,7,8,9,10-hexahydro-3-hydroxy-10-[[2-methyl-2-[4-[(methylamino)carbonyl]-1H-1,2,3-triazol-1-yl]-1-oxopropyl]amino]-4-oxo-], the IC50 was less than 10 nM.

For `COC[C@@H]1CCCN1C(=O)C(=O)NC12CCC(CC1)Cn1c2nc(C(=O)NCc2ccc(F)cc2)c(O)c1=O` [Example 89, N-(4-Fluorobenzyl)-3-hydroxy-10-((((2S)-2-(methoxymethyl)-1-pyrrolidinyl)(oxo)acetyl)amino)-4-oxo-4,6,7,8,9,10-hexahydro-7,10-ethanopyrimido[1,2-a]azepine-2-carboxamide], the IC50 was less than 10 nM.

Regarding `Cc1cc(CNC(=O)c2nc3n(c(=O)c2O)CC2CCC3(N(C)C(=O)C(=O)N(C)Cc3cnn(C)c3C)CC2)ccc1F` [Example 172, N-((1,5-Dimethyl-1H-pyrazol-4-yl)methyl)-N′-(2-((4-fluoro-3-methylbenzyl)carbamoyl)-3-hydroxy-4-oxo-6,7,8,9-tetrahydro-7,10-ethanopyrimido[1,2-a]azepin-10(4H)-yl)-N,N′-dimethylethanediamide], the IC50 was less than 10 nM.

As to `COC[C@H]1CCCN1C(=O)C(=O)NC12CCC(CC1)Cn1c2nc(C(=O)NCc2ccc(F)cc2)c(O)c1=O` [Example 88, N-(4-Fluorobenzyl)-3-hydroxy-10-((((2R)-2-(methoxymethyl)-1-pyrrolidinyl)(oxo)acetyl)amino)-4-oxo-4,6,7,8,9,10-hexahydro-7,10-ethanopyrimido[1,2-a]azepine-2-carboxamide], the IC50 is less than 10 nM.

Turning to `COc1c(C(=O)NCc2ccc(F)cc2)nc2n(c1=O)CC1CCC2(NC(=O)CCC(=O)O)CC1` [Example 308, Butanoic acid, 4-[[2-[[[(4-fluorophenyl)methyl]amino]carbonyl]-6,7,8,9-tetrahydro-3-methoxy-4-oxo-7,10-ethanopyrimido[1,2-a]azepin-10(4H)-yl]amino]-4-oxo-], the IC50 was greater than 100 nM.

In the case of `CO[C@H]1C[C@@H](C(=O)NC23CCC(CC2)Cn2c3nc(C(=O)NCc3ccc(F)c(C)c3)c(O)c2=O)N(C(=O)c2cc(C)n(C)n2)C1` [Example 295, 7,10-Ethanopyrimido[1,2-a]azepine-2-carboxamide, 10-[[[(2S,4S)-1-[(1,5-dimethyl-1H-pyrazol-3-yl)carbonyl]-4-methoxy-2-pyrrolidinyl]carbonyl]amino]-N-[(4-fluoro-3-methylphenyl)methyl]-4,6,7,8,9,10-hexahydro-3-hydroxy-4-oxo-], the IC50 was less than 10 nM.

Take `CC(CCc1ccccc1)NC(=O)c1nc2n(c(=O)c1O)CC1CCC2(NC(=O)C(=O)N(C)C)CC1` (stereo not shown) [Example 339]: the IC50 fell in the range of 10 to 100 nM.

For the compound `COC(=O)N1CCCC1C(=O)NC12CCC(CC1)Cn1c2nc(C(=O)NCc2ccc(F)cc2)c(O)c1=O` (stereo not shown) [Example 406], the IC50 is less than 10 nM.

`CN(C)C(=O)C(=O)NC12CCC(CC1)Cn1c2nc(C(=O)NCc2ccccc2F)c(O)c1=O` [Example 367]: the IC50 was less than 10 nM.

For the compound `CN(C)C(=O)C(=O)NC12CCC(CC1)Cn1c2nc(C(=O)NCc2ccc(N)cc2)c(O)c1=O` [Example 385], the IC50 was 10 to 100 nM.

For the compound `Cc1cc(CNC(=O)c2nc3n(c(=O)c2O)CC2CCC3(N(C)C(=O)C(=O)N(C)C)CC2)ccc1F` [Example 156, N-(2-((4-Fluoro-3-methylbenzyl)carbamoyl)-3-hydroxy-4-oxo-6,7,8,9-tetrahydro-7,10-ethanopyrimido[1,2-a]azepin-10(4H)-yl)-N,N′,N′-trimethylethanediamide], the IC50 is less than 10 nM.

For `Cc1cc(CNC(=O)c2nc3n(c(=O)c2O)CC[C@H]2CC[C@]3(NC(=O)C(=O)N(C)C)C2)ccc1F` [Example 416, Ethanediamide, N′-[(8R,11S)-2-[[[(4-fluoro-3-methylphenyl)methyl]amino]carbonyl]-7,8,9,10-tetrahydro-3-hydroxy-4-oxo-8,11-methano-4H-pyrimido[1,2-a]azocin-11(6H)-yl]-N,N-dimethyl-], the IC50 is less than 10 nM.

With `Cc1nnc(C(=O)NC23CCC(CC2)Cn2c3nc(C(=O)NCc3ccc(F)cc3)c(O)c2=O)o1` [Example 53, N-(4-Fluorobenzyl)-3-hydroxy-10-(((5-methyl-1,3,4-oxadiazol-2-yl)carbonyl)amino)-4-oxo-4,6,7,8,9,10-hexahydro-7,11-ethanopyrimido[1,2-a]azepine-2-carboxamide], the IC50 is less than 10 nM.

As to `CN(C)C(=O)COC12CCC(CC1)Cn1c2nc(C(=O)NCc2ccc(F)cc2)c(O)c1=O` [Example 226, 7,10-Ethanopyrimido[1,2-a]azepine-2-carboxamide, 10-[2-(dimethylamino)-2-oxoethoxy]-N-[(4-fluorophenyl)methyl]-4,6,7,8,9,10-hexahydro-3-hydroxy-4-oxo-], the IC50 was in the range of 10 to 100 nM.

In the case of `CCOC(=O)[C@@H]1CCCN1C(=O)C(=O)NC12CCC(CC1)Cn1c2nc(C(=O)NCc2ccc(F)cc2)c(O)c1=O` [Example 92, Ethyl 1-(((2-((4-fluorobenzyl)carbamoyl)-3-hydroxy-4-oxo-6,7,8,9-tetrahydro-7,11-ethanopyrimido[1,2-a]azepin-10(4H)-yl)amino) (oxo)aceyl)-L-prolinate], the IC50 was less than 10 nM.

On to `CN(C)C(=O)C(=O)N(C)C12CCC(CCn3c1nc(C(=O)NCc1ccc(F)cc1)c(O)c3=O)C2` (stereo not shown) [Example 211, Ethanediamide, N-[2-[[[(4-fluorophenyl)methyl]amino]carbonyl]-7,8,9,10-tetrahydro-3-hydroxy-4-oxo-8,11-methano-4H-pyrimido[1,2-a]azocin-11(6H)-yl]-N,N′,N′-trimethyl-], for which the IC50 is less than 10 nM.

As to `CCCS(=O)(=O)N1CCCC1C(=O)NC12CCC(CC1)Cn1c2nc(C(=O)NCc2ccc(F)cc2)c(O)c1=O` (stereo not shown) [Example 404], the IC50 is less than 10 nM.

With `Cc1ccccc1CNC(=O)c1nc2n(c(=O)c1O)CC1CCC2(NC(=O)C(=O)N(C)C)CC1` [Example 370], the IC50 was less than 10 nM.

In the case of `COCCN(C)C(=O)C(=O)NC12CCC(CC1)Cn1c2nc(C(=O)NCc2ccc(F)cc2)c(O)c1=O` [Example 100, N′-(2-((4-Fluorobenzyl)carbamoyl)-3-hydroxy-4-oxo-6,7,8,9-tetrahydro-7,10-ethanopyrimido[1,2-a]azepin-10(4H)-yl)-N-(2-methoxyethyl)-N-methylethanediamide], the IC50 was less than 10 nM.

Regarding `CNC(=S)NC12CCC(CC1)Cn1c2nc(C(=O)NCc2ccc(F)cc2)c(O)c1=O` [Example 331, 7,10-Ethanopyrimido[1,2-a]azepine-2-carboxamide, N-[(4-fluorophenyl)methyl]-4,6,7,8,9,10-hexahydro-3-hydroxy-10-[[(methylamino)thioxomethyl]amino]-4-oxo-], the IC50 was less than 10 nM.

In the case of `Cc1cc(CNC(=O)c2nc3n(c(=O)c2O)CC2CCC3(NC(=O)C(=O)N(C)C)CC2)ccc1F` [Example 113, N′-(2-((4-Fluoro-3-methylbenzyl)carbamoyl)-3-hydroxy-4-oxo-6,7,8,9-tetrahydro-7,10-ethanopyrimido[1,2-a]azepin-10(4H)-yl)-N,N-dimethylethanediamide], the IC50 is less than 10 nM.

In the case of `CN(C)C(=O)C(=O)N(C)C12CCC(CC1)Cn1c2nc(C(=O)NCc2ccc3c(c2)OCO3)c(O)c1=O` [Example 161, N-(2-((1,3-Benzodioxol-5-ylmethyl)carbamoyl)-3-hydroxy-4-oxo-6,7,8,9-tetrahydro-7,10-ethanopyrimido[1,2-a]azepin-10(4H)-yl)-N,N′,N′-trimethylethanediamide], the IC50 was less than 10 nM.

In the case of `CN(C)C(=O)C(=O)NC12CCC(CC1)Cn1c2nc(C(=O)NCCc2ccc(F)cc2)c(O)c1=O` [Example 358], the IC50 lay within 10 to 100 nM.
